Test results from US20250144047A1, “PHARMACEUTICAL COMPOSITION FOR PREVENTING, AMELIORATING, OR TREATING CANCER CONTAINING 8-PARADOL” (KDBIO CORP., priority 2022, published 2025).

What was measured:
[1] = test system: AGS cells; assay: Hoechst33258 and PI staining; type: cell-based, human
Experimental: AGS cells (1×10^5 cells) were seeded and maintained for 24 hours. In order to evaluate the percentage of apoptotic cells, Hoechst33258 or PI (Thermo Fisher Scientific, Rockford, IL, USA) was added to the AGS cells processed with the sample. After 30 minutes, the cells were observed using the fluorescence microscope (Leica DM IRB).

[2] = test system: AGS cells; assay: Mito-tracker, ROS and Mito-SOX staining; type: cell-based, human
Experimental: AGS cells (1×10^5 cells) were processed with the sample for 24 hours and then stained with a mitochondrial mito-tracker green kit (Thermo Fisher Scientific, Rockford, IL, USA). The stained cells were observed using the Leica DM IRB fluorescence microscope.
AGS cells were cultured at a density of 1×10^5 cells for 24 hours. After the sample were processed with the cultured cells, intracellular oxidative stress and superoxide were confirmed by a cell ROS/superoxide detection assay kit (Abcam, Cambridge, MA, USA). The degree of fluorescence was evaluated using the Leica DM IRB fluorescence microscope.

[3] = test system: AGS xenografts; assay: Tumor size in AGS-xenograft mice; type: in vivo
Experimental: (§1) Male nude mice (CAnN.Cg-Foxn1-nu, 4 weeks old, 20 g to 22 g) were purchased from OrientBio (Seongnam, Republic of Korea). The mice were placed in a chamber with conditions maintained at 23° C. and 50% humidity with a period of 12 hours of light and 12 hours of darkness. All animal experiments were conducted according to the National Institutes of Health's Laboratory Animal Care and Use Guidelines (NIH Publications No. 8023, revised 1996) and the Kyung Hee University's Animal Care and Use Guidelines ([…]-441, approval data: Sep. 28, 2021). […] The control group was administered with only 0.9% of general saline during this period. Body weights and tumor volumes of the mice were measured daily in all mice during the study period. All mice were euthanized after the end of the experiments. Blood, liver, spleen, kidney, and tumor tissues were extracted and weighed. In order to obtain the protein of tumor tissue, a portion of the tissue was processed with RIPA buffer containing a protease inhibitor cocktail. Then, the expression degree of a specific protein (determined by Western blot) was determined.

[4] = test system: AGS xenograft tumor tissue; assay: Western blot of tumor tissue of xenograft mice; type: in vivo
Experimental: For whole protein extraction, AGS cells were processed with samples at various concentrations for 24 hours. The cells were dissolved using Pierce™ RIPA buffer (Thermo Fisher Scientific, Rockford, IL, USA) together with protease inhibitor cocktail (GenDEPOT, TX, USA). The cell-dissolved solution formed in the above manner was centrifuged at 12,000 rpm for 20 minutes. The protein was loaded into a 10% SDS-PAGE gel using a protein gel electrophoresis chamber system and transferred to a PVDF membrane (Thermo Fisher Scientific, Rockford, IL, USA). A PBST solution containing 5% skim milk was used to block the membrane at 25° C. for 1 hour. Then, the membrane was incubated overnight at 4° C. with primary antibodies. Finally, the membrane was incubated with the secondary antibodies at 25° C. for 1 hour, and a protein band was detected using West-Q Pico ECL Solution (GenDEPOT, TX, USA). The results were quantified using ImageJ software.
Each mouse was orally administered with 8-paradol and 5-FU once a day for a total of 16 days. The control group was administered with only 0.9% of general saline during this period. Body weights and tumor volumes of the mice were measured daily in all mice during the study period. All mice were euthanized after the end of the experiments. Blood, liver, spleen, kidney, and tumor tissues were extracted and weighed. In order to obtain the protein of tumor tissue, a portion of the tissue was processed with RIPA buffer containing a protease inhibitor cocktail. Then, the expression degree of a specific protein (determined by Western blot) was determined.

[5] = test system: AGS cells; assay: Live/dead cell staining of AGS cells; type: cell-based, human; conditions: 24 hours
Experimental: Live/dead cells were stained using a live/dead cell staining kit (Thermo Fisher Scientific, Rockford, IL, USA). Specifically, apoptosis was induced by processing AGS cells (2×10^5 cells/well) as a sample for 24 hours. After staining the cells for 30 minutes using the staining kit, the cells were observed using a Leica DM IRB fluorescence microscope (Wetzlar, Germany). In addition, for the colony formation assay, AGS cells were cultured at a density of 500 cells/well and then processed with the sample. Then, the cells were stained with 0.5% crystal violet (Sigma-Aldrich, St. Louis, MO, USA) for 15 minutes […], and then the stained colonies were observed and quantified using ImageJ.

[6] = set-up: species or system mice; conditions: mouse, in vivo
Experimental: as §1, with “determined. […] Fuji Dri-Chem analyzer (3500, Fuji Photo Film Co., Osaka, Japan) was used to measure alanine aminotransferase (ALT), aspartate aminotransferase (AST), total bilirumin (T-Bili), total protein (TP), albumin (Alb), albumin/globulin (A/G) ratio, total cholesterol (T-Chol), total triglyceride (TG), glucose (GLU), and blood urea nitrogen (BUN) values.” for “determined.”

[7] = test system: AGS cells; assay: ATP fluorescence assay in AGS cells; type: cell-based, human
Excerpt: The ATP degree of the sample-processed AGS cells were detected according to the manufacturer's instructions by using an ATP fluorescence assay kit (Biovision, Milpitas, CA, USA).

[8] = test system: AGS cells
Experimental: AGS cells were grown in RPMI medium containing 10% FBS and 1% PS. HEK293 and RAW264.7 cells were grown in DMEM medium containing 10% FBS and 1% PS under conditions of 37° C., 5% CO2 and 95% air.
In order to evaluate toxicity to each cell, the sample was incubated in each cell (1×10^5 cells/well) cultured in the above manner for 24 hours, and then cytotoxicity to each cell was examined by using the MTT assay.

[9] = 8-paradol in combination with CQ, compared to 8-paradol solely
[10] = 8-paradol-H 8 mg/kg oral 16 days

Question: Which results are given for `CCCCCCCCCC(=O)CCc1ccc(O)c(OC)c1` [Purified Compound 3, 8-paradol]?
Answer: number of apoptotic cells (Hoechst and PI staining) ([1]; 8-paradol and CQ together, compared to 8-paradol solely): significantly reduced; fragmentation of nuclei and fluorescence of the condensate (Hoechst staining) ([1]; AGS cells): became stronger in a dose-dependent manner; number of killed cells (PI staining) ([1]; AGS cells, compared with control group): increased the number of killed cells; Mito-SOX [2, 9]: partially reduced; segmented mitochondria [2, 9]: reduced; ROS and Mito-SOX production ([2]; AGS cells): overproduction; mitochondrial morphology (Mito-tracker) ([2]; AGS cells, 24 hours): damaged and fragmented mitochondrial morphology; size and weight of the tumor compared to Con-T [3, 10]: significantly reduced; size, weight, and volume of the tumor compared to the 5-FU group [3, 10]: further reduced; size of the tumor compared to Con-T ([3]; 8-paradol-M 4 mg/kg oral 16 days): significantly reduced; expression degrees of p62 and Bcl-2 proteins ([4]; tumor tissue): significantly decreased; mitophagy-related proteins LC3, Pink1 and Parkin in tumor tissue ([4]; tumor tissue of processed mice): significantly increased in a dose-dependent manner; apoptosis-related proteins Bax, Cytochrome-c, Cleaved-caspase-3/caspase-3 and Cleaved-caspase-9/caspase-9 ([4]; tumor tissue, compared to control group): significantly increased; cytotoxicity on AGS cells by cell morphology and live/dead cell staining [5]: strong cytotoxicity; harm to the liver [6]: not harmful to the liver; kidney damage [6]: did not cause kidney damage; ATP loss induced by 8-paradol ([7]; 8-paradol with CQ (inhibiting mitophagy)): reduced; ATP concentration in AGS cells ([7]; AGS cells): reduced; cytotoxicity to AGS cells [8]: killed in a concentration-dependent manner; cell viability ([8]; 8-paradol and CQ in combination, compared to 8-paradol solely): significantly improved; IC50 ([8]; read-out: IC50 on AGS cells, AGS cells, 24 hours, MTT assay): 14.9 ± 1.65 µM
